# Data as given in patent US6423352B1 (priority 1998, dated 2002).
# Read-outs that look alike come from different tables or passages of the source.
# Tests used:
# Format in all cases: in vivo
# Phytophthora infestans [1] = conditions: for % diseased leaf area, solvent control: Example 12, late blight in tomato, untreated control 81; for % diseased leaf area, late blight tomato, 5 d: Example 17, none 81
# [2] = test system: Pseudoperonospora cubensis; experiment: downy mildew in cucumber: sprayed plants inoculated, disease recorded; conditions: Example 14; solvent conc. 1%; inoculation three hours after spray; none (control) 88
# Procedure: (§1) To test the efficacy of these extracts and suspensions, experiments were performed in which plants were sprayed using a fine glass atomizer with either Inula extract or with pure solvent as a control for the Inula extracts, with either Inula extract and emulsifier or with an emulsifier solution as a control for the emulsified Inula extracts, and with either Inula suspension or with water or emulsifier solution as a control for the Inula suspensions. Treated and control plants were then inoculated with a crop-respective fungal pathogen. After an incubation period, the extent of the infection was measured. Unless otherwise stated, percentage protection from the disease due to the treatment with the Inula extract or suspension was calculated as:
# (§2) % control of the disease=[1−(% infection and treated plants/% infection in control plants)]×100.
# The crop plants and pathogens used for inoculation are described in the following list. […]
# (§3) Disease records were visually estimated in the inoculated plants at 3-13 days after inoculation, depending on the crop and disease. Percentage leaf area occupied with disease symptoms or fungal colonies was recorded and given in the results section.
# [3] = test system: Erysiphe graminis tritici; experiment: powdery mildew in wheat: sprayed plants inoculated, diseased leaf area recorded; conditions: for % diseased leaf area, wheat powdery mildew, 10 d: Example 14, solvent conc. 1%, inoculation three hours after spray, none (control) 50; for % diseased leaf area, powdery mildew wheat, 8 d: Example 17, none 69
# Procedure: as §1, §2
# The crop plants and pathogens used for inoculation are described in the following list.
# Inoculation with P. infestants, P. cubensis, P. tabacina, P. viticola, B. cinera and C. fulvum was done by spraying a spore suspension in distilled water onto the upper leaf surfaces of the treated (and the control) plants. Inoculated plants were kept in a dew chamber at 18-20° C. in the dark for 16-20 hours and then in a growth chamber at 20° C. with 12 hours photoperiod. Inoculation with E. graminis and S. fuliginea was done by blowing spores over the treated (and control) plants. Inoculated plants were then kept in a growth chamber as above.
# as §3
# Phytophthora infestans [4] = conditions: for % Protection, late blight in potato / Diseased leaf area, late blight in potato: Example 2; for Diseased leaf area, late blight in potato: recorded 4 days post inoculation, untreated control 98; for % diseased leaf area, late blight potato, 5 d: Example 17, none 100
compound,measurement,setting,value
C1CNCCN1.O [piperazine hydrate],"% diseased leaf area, solvent control",Phytophthora infestans [1]; solvent alone 0.05M,81%
same,"% diseased leaf area, solvent control",Phytophthora infestans [1]; solvent alone 0.1M,81%
tetraethylene,"% diseased leaf area, cucumber downy mildew, 6 d",[2],31%
same,"% diseased leaf area, Tomato late blight, 4 d",Phytophthora infestans [1]; in vivo,63%
same,"% diseased leaf area, wheat powdery mildew, 10 d",[3],50%
C1CCNCC1 [piperidine],"% diseased leaf area, cucumber downy mildew, 6 d",[2],94%
same,"% diseased leaf area, Tomato late blight, 4 d","Phytophthora infestans [1]; Example 14, solvent conc. 1%, inoculation three hours after spray, none (control) 88",88%
same,"% diseased leaf area, wheat powdery mildew, 10 d",[3],25%
"N.O [NH4OH, ammonium hydroxide]","% Protection, late blight in potato",Phytophthora infestans [4]; NH4OH 1%,0%
same,"Diseased leaf area, late blight in potato",Phytophthora infestans [4]; NH4OH 1%,100
same,"% Protection, late blight in potato",Phytophthora infestans [4]; NH4OH 2%,0%
same,"Diseased leaf area, late blight in potato",Phytophthora infestans [4]; NH4OH 2%,100
same,"% Protection, late blight in potato",Phytophthora infestans [4]; NH4OH 4%,0%
same,"Diseased leaf area, late blight in potato",Phytophthora infestans [4]; NH4OH 4%,100
same,"% Protection, late blight in potato",Phytophthora infestans [4]; NH4OH 8% (= 2% aqueous NH3),0%
same,"Diseased leaf area, late blight in potato","Phytophthora infestans [4]; NH4OH 8% (= 2% aqueous NH3), inoculated 2 days after spray",100
"c1c[nH]cn1 [Imidazole only, imidazole]","% diseased leaf area, late blight potato, 5 d",Phytophthora infestans [4]; imidazole only 0.12% pH 9.55,50%
same,"% diseased leaf area, late blight potato, 5 d",Phytophthora infestans [4]; imidazole only 0.25% pH 9.70,50%
same,"% diseased leaf area, late blight potato, 5 d",Phytophthora infestans [4]; imidazole only 0.5% pH 9.86,25%
same,"% diseased leaf area, late blight potato, 5 d",Phytophthora infestans [4]; imidazole only 1% pH 9.95,18%
same,"% diseased leaf area, late blight tomato, 5 d",Phytophthora infestans [1]; imidazole only 0.12% pH 9.55,95%
same,"% diseased leaf area, late blight tomato, 5 d",Phytophthora infestans [1]; imidazole only 0.25% pH 9.70,88%
same,"% diseased leaf area, late blight tomato, 5 d",Phytophthora infestans [1]; imidazole only 0.5% pH 9.86,69%
same,"% diseased leaf area, late blight tomato, 5 d",Phytophthora infestans [1]; imidazole only 1% pH 9.95,50%
same,"% diseased leaf area, powdery mildew wheat, 8 d",[3]; imidazole only 0.12% pH 9.55,63%
same,"% diseased leaf area, powdery mildew wheat, 8 d",[3]; imidazole only 0.25% pH 9.70,50%
same,"% diseased leaf area, powdery mildew wheat, 8 d",[3]; imidazole only 0.5% pH 9.86,23%
same,"% diseased leaf area, powdery mildew wheat, 8 d",[3]; imidazole only 1% pH 9.95,25%
